Laboratory results: ChEMBL document CHEMBL5385912, “Macrocycles and Acyclic Cucurbit[n]urils as Pseudo[2]catenane Partners for Long-Acting Neuromuscular Blocks and Rapid Reversal In Vivo” (J Med Chem, 2024)
Activity calls are given as the source filed them. The rule behind the calls is not given here.

Legend:
Rattus norvegicus [1] = assay: Neuromuscular blocking in Sprague-Dawley rat assessed as inhibition of electrical stimulation induced twitch amplitude at 0.8 mg/kg, iv; type: functional, organism-based
Rattus norvegicus [2] = species on record: Rattus norvegicus; assay: Neuromuscular blocking in Sprague-Dawley rat assessed as inhibition of electrical stimulation induced twitch amplitude; type: functional
Rattus norvegicus [3] = assay: Neuromuscular blocking in Sprague-Dawley rat assessed as duration time to TOF ratio of 0.25 recovery at 1.6 mg/kg, iv; type: functional
Rattus norvegicus [4] = assay: Neuromuscular blocking in Sprague-Dawley rat assessed as duration time to TOF ratio of 0.25 recovery at 2.4 mg/kg, iv; type: functional
H9c2 = assay: Cytotoxicity against rat H9C2 cells at 512 ug/ml incubated for 24 hrs by CCK8 assay; type: toxicity, cell-based; conditions: h9c2, 24 h, dose 512 µg/ml
L02 = assay: Cytotoxicity against L02 cells at 512 ug/ml incubated for 24 hrs by CCK8 assay; type: toxicity, cell-based; conditions: human, l02, 24 h, dose 512 µg/ml
Erythrocyte [5] = assay: Hemolysis in human RBC; type: toxicity, cell-based
Erythrocyte [6] = assay: Hemolysis in rat RBC; type: toxicity, cell-based
[7] = Toxicity in Sprague-Dawley rat at 9 mg/kg, iv measured after 1 hr; type: organism-based; conditions: in vivo
[8] = Solubility of compound in Na2HPO4/NaH2PO4 buffer; type: physicochemical
Rattus norvegicus [9] = assay: Neuromuscular blocking in Sprague-Dawley rat assessed as duration time to TOF ratio of 0.25 recovery at 3.5 mg/kg, iv; type: functional
[10] = Solubility of compound in phosphate buffer; type: physicochemical
Rattus norvegicus [11] = assay: (§1) Reversal of 2,27-dioxa-11,18,36,43-tetraza-8,21,33,46-tetrazoniaundecacyclo[46.2.2.23,6.213,16.223,26.228,31.238,41.18,11.118,21.133,36.143,46]hexahexaconta-1(50),3,5,8(64),9,13(63),14,16(62),19,21(61),23,25,28,30,33(56),34,38,40,44,46(53),48,51,54,57,59,65-hexacosaene tetrachloride induced neuromuscular block in Sprague-Dawley rat assessed as recovery time at 2.5 mg/kg, iv; type: functional
Rattus norvegicus [12] = assay: as §1, with “10” for “2.5”; type: functional
Rattus norvegicus [13] = assay: as §1, with “20” for “2.5”; type: functional
Rattus norvegicus [14] = assay: as §1, with “0.36” for “2.5”; type: functional
Rattus norvegicus [15] = assay: as §1, with “50” for “2.5”, “iv after 1 min” for “iv”; type: functional
[16] = Toxicity in ICR mouse assessed as maximal tolerated dose; conditions: in vivo
[17] = Toxicity in ICR mouse assessed as weight loss at 400 mg/kg, iv measured after 1 day; type: organism-based; conditions: in vivo, 24 h
[18] = Toxicity in ICR mouse assessed as heart abnormality at 200 to 400 mg/kg after 14 days by H and E staining based optical microscopic analysis; type: organism-based; conditions: in vivo, 336 h, dose 200-400 mg/kg, time 14 day
[19] = Toxicity in ICR mouse assessed as liver abnormality at 200 to 400 mg/kg after 14 days by H and E staining based optical microscopic analysis; type: organism-based; conditions: in vivo, 336 h, dose 200-400 mg/kg, time 14 day
[20] = Toxicity in ICR mouse assessed as spleen abnormality at 200 to 400 mg/kg after 14 days by H and E staining based optical microscopic analysis; type: organism-based; conditions: in vivo, 336 h, dose 200-400 mg/kg, time 14 day
[21] = Toxicity in ICR mouse assessed as lung abnormality at 200 to 400 mg/kg after 14 days by H and E staining based optical microscopic analysis; type: organism-based; conditions: in vivo, 336 h, dose 200-400 mg/kg, time 14 day
[22] = Toxicity in ICR mouse assessed as kidney abnormality at 200 to 400 mg/kg after 14 days by H and E staining based optical microscopic analysis; type: organism-based; conditions: in vivo, 336 h, dose 200-400 mg/kg, time 14 day

**Q.** Which Activity (Rattus norvegicus [1]) does the source give for `c1ccc(C[n+]2ccn(Cc3ccc(Oc4ccc(Cn5cc[n+](Cc6ccccc6)c5)cc4)cc3)c2)cc1` here?
**A.** inactive

**Q.** With `[Cl-].[Cl-].[Cl-].[Cl-].c1cc2ccc1Cn1cc[n+](c1)Cc1ccc(cc1)Oc1ccc(cc1)C[n+]1ccn(c1)Cc1ccc(cc1)Cn1cc[n+](c1)Cc1ccc(cc1)Oc1ccc(cc1)C[n+]1ccn(c1)C2` as the molecule, how does the ED90 (Rattus norvegicus [2]) read?
**A.** 0.8 mg/kg

**Q.** What about the Time (Rattus norvegicus [3]) of the same molecule?
**A.** 1785 s

**Q.** And the Time (Rattus norvegicus [4])?
**A.** 4965 s

**Q.** What about the Activity (H9c2) of the same molecule?
**A.** Non-Toxic

**Q.** What about the Activity (L02) of the same molecule?
**A.** Non-Toxic

**Q.** What about the Activity (Erythrocyte [5]) of the same molecule?
**A.** Non-Toxic

**Q.** And the Activity (Erythrocyte [6])?
**A.** Non-Toxic

**Q.** And the Activity [7]?
**A.** Non-Toxic

**Q.** And the solubility [8]?
**A.** 78 mg/mL

**Q.** With `c1cc2ccc1Cn1cc[n+](c1)Cc1ccc(cc1)C[n+]1ccn(c1)Cc1ccc(cc1)O2` as the molecule, how does the Activity (Rattus norvegicus [1]) read?
**A.** inactive

**Q.** With `[Cl-].[Cl-].[Cl-].[Cl-].c1cc2ccc1Cn1cc[n+](c1)Cc1ccc(cc1)-c1ccc(cc1)C[n+]1ccn(c1)Cc1ccc(cc1)Cn1cc[n+](c1)Cc1ccc(cc1)-c1ccc(cc1)C[n+]1ccn(c1)C2` as the molecule, how does the ED90 (Rattus norvegicus [2]) read?
**A.** 1.07 mg/kg

**Q.** What about the Activity (Rattus norvegicus [1]) of the same molecule?
**A.** inactive

**Q.** And the solubility [8]?
**A.** 21 mg/mL

**Q.** For `C=CC[N+]1([C@H]2C[C@H]3[C@@H]4CC[C@H]5C[C@H](O)[C@@H](N6CCOCC6)C[C@]5(C)[C@H]4CC[C@]3(C)[C@H]2OC(C)=O)CCCC1` [ROCURONIUM], which Time (Rattus norvegicus [9]) is on record?
**A.** 497 s

**Q.** What does the source list for `C[C@]12N3Cc4c(c(OCCCS(=O)(=O)[O-])c5ccccc5c4OCCCS(=O)(=O)[O-])CN1C(=O)N1CN4C(=O)N5CN6C(=O)N7CN8C(=O)N9Cc%10c(c(OCCCS(=O)(=O)[O-])c%11ccccc%11c%10OCCCS(=O)(=O)[O-])CN%10C(=O)N(CN%11C(=O)N(CN%12C(=O)N(CN(C3=O)[C@]12C)[C@@H]4[C@H]%125)[C@@H]6[C@H]%117)[C@]8(C)[C@@]9%10C.[Na+].[Na+].[Na+].[Na+]`?
**A.** solubility [10]: 29.5 mg/mL; Time (Rattus norvegicus [11]): 215 s; Time (Rattus norvegicus [12]): 18 s

**Q.** With `O=C(O)CCSC[C@H]1O[C@@H]2O[C@H]3[C@H](O)[C@@H](O)[C@@H](O[C@H]4[C@H](O)[C@@H](O)[C@@H](O[C@H]5[C@H](O)[C@@H](O)[C@@H](O[C@H]6[C@H](O)[C@@H](O)[C@@H](O[C@H]7[C@H](O)[C@@H](O)[C@@H](O[C@H]8[C@H](O)[C@@H](O)[C@@H](O[C@H]9[C@H](O)[C@@H](O)[C@@H](O[C@H]1[C@H](O)[C@H]2O)O[C@@H]9CSCCC(=O)O)O[C@@H]8CSCCC(=O)O)O[C@@H]7CSCCC(=O)O)O[C@@H]6CSCCC(=O)O)O[C@@H]5CSCCC(=O)O)O[C@@H]4CSCCC(=O)O)O[C@@H]3CSCCC(=O)O` as the molecule, how does the Time (Rattus norvegicus [13]) read?
**A.** 1175 s

**Q.** Which Activity (Rattus norvegicus [1]) does the source give for `COc1ccc(Cn2cc[n+](Cc3ccc(C[n+]4ccn(Cc5ccc(OC)cc5)c4)cc3)c2)cc1` here?
**A.** inactive

**Q.** Which results are given for `Cc1c(C)c(OCCCC(=O)[O-])c2c(c1OCCCC(=O)[O-])CN1C(=O)N3CN4C(=O)N5CN6C(=O)N7CN8C(=O)N9Cc%10c(c(OCCCC(=O)[O-])c(C)c(C)c%10OCCCC(=O)[O-])CN%10C(=O)N(CN%11C(=O)N(CN%12C(=O)N(CN%13C(=O)N(C2)[C@]1(C)[C@]%133C)[C@@H]4[C@@H]5%12)[C@@H]6[C@@H]7%11)[C@]8(C)[C@]%109C.[Na+].[Na+].[Na+].[Na+]`?
**A.** solubility [10]: 400 mg/mL; Time (Rattus norvegicus [11]): 259 s; Time (Rattus norvegicus [12]): 16 s

**Q.** Which solubility [10] does the source give for `C[C@]12N3Cc4c(OCCCC(=O)[O-])ccc(OCCCC(=O)[O-])c4CN1C(=O)N1CN4C(=O)N5CN6C(=O)N7CN8C(=O)N9Cc%10c(OCCCC(=O)[O-])ccc(OCCCC(=O)[O-])c%10CN%10C(=O)N(CN%11C(=O)N(CN%12C(=O)N(CN(C3=O)[C@]12C)[C@@H]4[C@H]%125)[C@@H]6[C@H]%117)[C@]8(C)[C@@]9%10C.[Na+].[Na+].[Na+].[Na+]` here?
**A.** 549 mg/mL

**Q.** And the Time (Rattus norvegicus [11])?
**A.** 411 s

**Q.** What about the Time (Rattus norvegicus [12]) of the same molecule?
**A.** 18 s

**Q.** With `c1cc2ccc1C[n+]1ccc(cc1)-c1cc[n+](cc1)Cc1ccc(cc1)C[n+]1ccc(cc1)-c1cc[n+](cc1)C2` as the molecule, how does the Activity (Rattus norvegicus [1]) read?
**A.** inactive

**Q.** Which Time (Rattus norvegicus [14]) does the source give for `CN(C)C(=O)Oc1cccc([N+](C)(C)C)c1` [NEOSTIGMINE] here?
**A.** 694 s

**Q.** With `C[C@]12N3Cc4c(c(OCCCC(=O)[O-])c5ccccc5c4OCCCC(=O)[O-])CN1C(=O)N1CN4C(=O)N5CN6C(=O)N7CN8C(=O)N9Cc%10c(c(OCCCC(=O)[O-])c%11ccccc%11c%10OCCCC(=O)[O-])CN%10C(=O)N(CN%11C(=O)N(CN%12C(=O)N(CN(C3=O)[C@]12C)[C@@H]4[C@H]%125)[C@@H]6[C@H]%117)[C@]8(C)[C@@]9%10C.[Na+].[Na+].[Na+].[Na+]` as the molecule, how does the solubility [10] read?
**A.** 293 mg/mL

**Q.** And the Time (Rattus norvegicus [11])?
**A.** 205 s

**Q.** And the Time (Rattus norvegicus [12])?
**A.** 16 s

**Q.** And the Time (Rattus norvegicus [13])?
**A.** 17 s

**Q.** And the Activity (H9c2)?
**A.** Non-Toxic

**Q.** What about the Activity (L02) of the same molecule?
**A.** Non-Toxic

**Q.** What about the Activity (Erythrocyte [5]) of the same molecule?
**A.** Non-Toxic

**Q.** What about the Activity (Erythrocyte [6]) of the same molecule?
**A.** Non-Toxic

**Q.** What about the Activity (Rattus norvegicus [15]) of the same molecule?
**A.** 100%

**Q.** And the MTD [16]?
**A.** 550 mg/kg

**Q.** What about the Activity [17] of the same molecule?
**A.** Toxic

**Q.** And the Activity [18]?
**A.** Non-Toxic

**Q.** What about the Activity [19] of the same molecule?
**A.** Non-Toxic

**Q.** What about the Activity [20] of the same molecule?
**A.** Non-Toxic

**Q.** And the Activity [21]?
**A.** Non-Toxic

**Q.** What about the Activity [22] of the same molecule?
**A.** Non-Toxic

**Q.** With `[Cl-].[Cl-].[Cl-].[Cl-].c1cc2ccc1Cc1ccc(cc1)C[n+]1ccn(c1)Cc1ccc(cc1)Cn1cc[n+](c1)Cc1ccc(cc1)Cc1ccc(cc1)C[n+]1ccn(c1)Cc1ccc(cc1)Cn1cc[n+](c1)C2` as the molecule, how does the ED90 (Rattus norvegicus [2]) read?
**A.** 1.16 mg/kg

**Q.** And the Activity (Rattus norvegicus [1])?
**A.** inactive

**Q.** And the solubility [8]?
**A.** 58 mg/mL
